For the assay, the system named is L1210 leukemia ip in BDF1 mice, survival T/C. Put plainly: NCI In Vivo Anticancer Drug Screen. Data for tumor model L1210 Leukemia (intraperitoneal) in B6D2F1 (BDF1) mice. As to conditions: higher = longer survival. In short, it runs like this:
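Ratio derived from survival: compound-dosed mice over vehicle-dosed mice, all bearing a transplantable tumor.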

Where [1] appears, read: endpoint: mean survival time, dose: 100.0 mg/kg/injection, schedule: Q04DX003 (ip), vehicle: Klucel (hydroxypropylcellulose) (HPC).
[2] abbreviates: endpoint: mean survival time, dose: 200.0 mg/kg/injection, schedule: Q04DX003 (ip), vehicle: Klucel (hydroxypropylcellulose) (HPC).
Setting [3] is: endpoint: mean survival time, dose: 400.0 mg/kg/injection, schedule: Q04DX003 (ip), vehicle: Klucel (hydroxypropylcellulose) (HPC).
Setting [4] is: endpoint: mean survival time, dose: 100.0 mg/kg/injection, schedule: Q01DX001 (ip), vehicle: saline.
Where [5] appears, read: endpoint: mean survival time, dose: 200.0 mg/kg/injection, schedule: Q01DX001 (ip), vehicle: saline.
Setting [6] is: endpoint: mean survival time, dose: 400.0 mg/kg/injection, schedule: Q01DX001 (ip), vehicle: saline.
The mark [7] stands for this setting: endpoint: mean survival time, dose: 50.0 mg/kg/injection, schedule: Q01DX009 (ip), vehicle: Klucel (hydroxypropylcellulose) (HPC).
The mark [8] stands for this setting: endpoint: mean survival time, dose: 100.0 mg/kg/injection, schedule: Q01DX009 (ip), vehicle: Klucel (hydroxypropylcellulose) (HPC).
[9] abbreviates: endpoint: mean survival time, dose: 100.0 mg/kg/injection, schedule: Q01DX001 (ip), vehicle: carboxymethylcellulose (CMC).
The mark [10] stands for this setting: endpoint: mean survival time, dose: 200.0 mg/kg/injection, schedule: Q01DX001 (ip), vehicle: carboxymethylcellulose (CMC).
Setting [11] is: endpoint: mean survival time, dose: 400.0 mg/kg/injection, schedule: Q01DX001 (ip), vehicle: carboxymethylcellulose (CMC).
Where [12] appears, read: endpoint: mean survival time, dose: 200.0 mg/kg/injection, schedule: Q01DX009 (ip), vehicle: Klucel (hydroxypropylcellulose) (HPC).
[13] abbreviates: endpoint: mean survival time, dose: 400.0 mg/kg/injection, schedule: Q01DX009 (ip), vehicle: Klucel (hydroxypropylcellulose) (HPC).
Where [14] appears, read: endpoint: mean survival time, dose: 50.0 mg/kg/injection, schedule: Q01DX001 (ip), vehicle: carboxymethylcellulose (CMC).

Several values for one entry are separate records, joined by “and”; a condition that tells them apart may be missing. Equal entries are not always repeated. Toxic doses and inconclusive results are not listed.

In the case of `CCOC(=O)COc1cc(Cl)c(S(=O)(=O)F)cc1Cl`, the T/C was 96 % of control under setting [1], 104 % of control under setting [2] and 91 % of control under setting [3].

For `CCCCN(C)/N=N/c1[nH]ncc1C(=O)OC`, the T/C reads like this: (endpoint: mean survival time, dose: 268.0 mg/kg/injection, schedule: Q01DX007 (ip), vehicle: other) 150 % of control; (endpoint: mean survival time, dose: 600.0 mg/kg/injection, schedule: Q01DX007 (ip), vehicle: other) 88 % of control.

Take `CC1(C)OC2OCC(O)C2O1` (stereo not given): the T/C reads like this: (endpoint: mean survival time, dose: 50.0 mg/kg/injection, schedule: Q04DX002 (ip), vehicle: saline) 100 % of control; (endpoint: mean survival time, dose: 100.0 mg/kg/injection, schedule: Q04DX002 (ip), vehicle: saline) 104 % of control; (endpoint: mean survival time, dose: 200.0 mg/kg/injection, schedule: Q04DX002 (ip), vehicle: saline) 110 % of control.

For the compound `Cc1cc(Nc2ccc(N=Nc3ccc(O)c4ncccc34)cc2)nc(C)n1`, the T/C is 102 % of control under setting [4], 105 % of control under setting [5] and 103 % of control under setting [6].

Take `O=C1C(=C(C(F)(F)F)C(F)(F)F)CCc2ccccc21`: the T/C runs as follows: under setting [7], 95 % of control; (endpoint: mean survival time, dose: 100.0 mg/kg/injection, schedule: Q01DX001 (ip), vehicle: Klucel (hydroxypropylcellulose) (HPC)) 91 % of control; under setting [8], 93 % of control; (endpoint: mean survival time, dose: 200.0 mg/kg/injection, schedule: Q01DX001 (ip), vehicle: Klucel (hydroxypropylcellulose) (HPC)) 91 % of control.

On to `CCCCCCCCCCC(C1CCCC2CCCCC21)C1CCCC2CCCCC21` (stereo not given), for which the T/C was 100 % of control under setting [9], 102 % of control under setting [10] and 94 % of control under setting [11].

On to `CCOC(=O)c1[nH]c(-c2ccccc2)nc1/N=N/N(C)C`, for which the T/C reads like this: (endpoint: median survival time, dose: 25.0 mg/kg/injection, schedule: Q01DX009 (ip), vehicle: Klucel (hydroxypropylcellulose) (HPC)) 122 % of control; (endpoint: median survival time, dose: 200.0 mg/kg/injection, schedule: Q01DX009 (ip), vehicle: Klucel (hydroxypropylcellulose) (HPC)) 111 % of control.

Consider `O=C(N/N=C/c1c(O)ccc2ccccc12)c1ccccc1`, for which the T/C by setting is: under setting [8], 113 % of control; under setting [12], 103 % of control; under setting [13], 108 % of control.

In the case of `O=C(O)/C=C\C(=O)NCC1CCC(CNC(=O)/C=C\C(=O)O)CC1` (stereo not given), the T/C under setting [1] was 98 % of control, the T/C under setting [2] is 100 % of control and the T/C under setting [3] is 102 % of control.

As for `CC1CN(CC2CCCCCCCCCCC2=O)CC(C)O1` (stereo not given), the T/C is 116 % of control (endpoint: mean survival time, dose: 100.0 mg/kg/injection, schedule: Q04DX002 (ip), vehicle: Klucel (hydroxypropylcellulose) (HPC)) and 90 % of control (endpoint: mean survival time, dose: 200.0 mg/kg/injection, schedule: Q04DX002 (ip), vehicle: Klucel (hydroxypropylcellulose) (HPC)).

For the compound `O=C1C(Cl)=C(NCc2ccco2)C(=O)c2ccccc21`, the T/C reads like this: (endpoint: mean survival time, dose: 77.0 mg/kg/injection, schedule: Q01DX Z (ip), vehicle: methylcellulose (MC)) 89 % of control; (endpoint: mean survival time, dose: 116.0 mg/kg/injection, schedule: Q01DX Z (ip), vehicle: methylcellulose (MC)) 87 % of control; (endpoint: mean survival time, dose: 175.0 mg/kg/injection, schedule: Q01DX Z (ip), vehicle: methylcellulose (MC)) 95 % of control.

As for `C(/C=N/Nc1cnccn1)=N\Nc1cnccn1`, the T/C was 89 % of control under setting [8], 89 % of control under setting [12] and 110 % of control under setting [13].

Consider `CC12CCC(C(=N/O)/C1=N\O)C2(C)C` (stereo not given), for which the T/C by setting is: (endpoint: mean survival time, dose: 20.0 mg/kg/injection, schedule: Q04DX003 (ip), vehicle: Klucel (hydroxypropylcellulose) (HPC)) 106 % of control; (endpoint: mean survival time, dose: 25.0 mg/kg/injection, schedule: Q01DX009 (ip), vehicle: Klucel (hydroxypropylcellulose) (HPC)) 107 % of control; (endpoint: mean survival time, dose: 40.0 mg/kg/injection, schedule: Q04DX003 (ip), vehicle: Klucel (hydroxypropylcellulose) (HPC)) 103 % of control; under setting [7], 107 % of control; (endpoint: mean survival time, dose: 80.0 mg/kg/injection, schedule: Q04DX003 (ip), vehicle: Klucel (hydroxypropylcellulose) (HPC)) 105 % of control; under setting [1], 96 % of control.

Turning to `O=C(O)CCCCCCCCCCCCCCCO`, the T/C (endpoint: mean survival time, dose: 100.0 mg/kg/injection, schedule: Q04DX003 (ip), vehicle: saline with Tween-80) is 96 % of control; the T/C (endpoint: mean survival time, dose: 200.0 mg/kg/injection, schedule: Q04DX003 (ip), vehicle: saline with Tween-80) is 96 % of control; the T/C (endpoint: mean survival time, dose: 400.0 mg/kg/injection, schedule: Q04DX003 (ip), vehicle: saline with Tween-80) was 91 % of control.

As to `O=C(NCCC[P+](c1ccccc1)(c1ccccc1)c1ccccc1)OCc1ccccc1`, the T/C (endpoint: mean survival time, dose: 12.5 mg/kg/injection, schedule: Q01DX009 (ip), vehicle: carboxymethylcellulose (CMC)) is 101 % of control and 120 % of control; the T/C (endpoint: mean survival time, dose: 12.5 mg/kg/injection, schedule: Q04DX002 (ip), vehicle: carboxymethylcellulose (CMC)) is 103 % of control; the T/C (endpoint: mean survival time, dose: 25.0 mg/kg/injection, schedule: Q01DX001 (ip), vehicle: carboxymethylcellulose (CMC)) was 87 % of control and 91 % of control; the T/C (endpoint: mean survival time, dose: 25.0 mg/kg/injection, schedule: Q01DX009 (ip), vehicle: carboxymethylcellulose (CMC)) is 103 % of control; the T/C (endpoint: mean survival time, dose: 25.0 mg/kg/injection, schedule: Q04DX002 (ip), vehicle: carboxymethylcellulose (CMC)) was 100 % of control and 91 % of control; the T/C (endpoint: mean survival time, dose: 25.0 mg/kg/injection, schedule: Q04DX003 (ip), vehicle: carboxymethylcellulose (CMC)) was 97 % of control and 98 % of control. The T/C under setting [14] was 95 % of control and 104 % of control; the T/C (endpoint: mean survival time, dose: 50.0 mg/kg/injection, schedule: Q04DX002 (ip), vehicle: carboxymethylcellulose (CMC)) is 100 % of control; the T/C (endpoint: mean survival time, dose: 50.0 mg/kg/injection, schedule: Q04DX003 (ip), vehicle: carboxymethylcellulose (CMC)) was 97 % of control and 100 % of control.

On to `NC(=O)Nc1ccc2c(c1)Cc1cc(F)ccc1-2`, for which the T/C is, setting by setting: (endpoint: mean survival time, dose: 87.0 mg/kg/injection, schedule: Q01DX001 (ip), vehicle: other) 100 % of control; (endpoint: mean survival time, dose: 89.0 mg/kg/injection, schedule: Q01DX001 (ip), vehicle: carboxymethylcellulose (CMC)) 97 % of control and 109 % of control; under setting [9], 97 % of control; (endpoint: mean survival time, dose: 132.0 mg/kg/injection, schedule: Q01DX001 (ip), vehicle: other) 97 % of control; (endpoint: mean survival time, dose: 133.0 mg/kg/injection, schedule: Q01DX001 (ip), vehicle: carboxymethylcellulose (CMC)) 100 % of control and 112 % of control; under setting [10], 104 % of control and 105 % of control. Also, the T/C is 92 % of control (endpoint: mean survival time, dose: 200.0 mg/kg/injection, schedule: Q01DX001 (ip), vehicle: other); 101 % of control and 108 % of control (endpoint: mean survival time, dose: 300.0 mg/kg/injection, schedule: Q01DX001 (ip), vehicle: carboxymethylcellulose (CMC)); 97 % of control (endpoint: mean survival time, dose: 300.0 mg/kg/injection, schedule: Q01DX001 (ip), vehicle: other); 105 % of control under setting [11].

`O=C(NC(=O)c1cccc(Br)c1)Nc1ccccc1`: the T/C is 92 % of control (endpoint: mean survival time, dose: 264.0 mg/kg/injection, schedule: Q01DX001 (ip), vehicle: carboxymethylcellulose (CMC)); 96 % of control under setting [11]; 90 % of control (endpoint: mean survival time, dose: 600.0 mg/kg/injection, schedule: Q01DX001 (ip), vehicle: carboxymethylcellulose (CMC)).

As to `CN(C)c1ccccc1CN1CCCN(Cc2ccccc2N(C)C)C1c1ccncc1`, the T/C is 96 % of control (endpoint: mean survival time, dose: 6.0 mg/kg/injection, schedule: Q12HX018 (ip), vehicle: other); 103 % of control (endpoint: mean survival time, dose: 12.0 mg/kg/injection, schedule: Q12HX018 (ip), vehicle: other); 101 % of control (endpoint: mean survival time, dose: 24.0 mg/kg/injection, schedule: Q12HX018 (ip), vehicle: other).

As to `CCOC(=O)/C(C)=N/Nc1cc(Cl)ccc1O`, the T/C is 95 % of control under setting [4], 94 % of control under setting [5] and 106 % of control under setting [6].

For `CC(=O)Nc1cc(C)cc(C)c1`, the T/C reads like this: under setting [14], 105 % of control; under setting [9], 111 % of control; under setting [10], 111 % of control; under setting [11], 105 % of control.

The record behind these values is PubChem BioAssay AID248 (DTP/NCI, 2004).
